Literature values in patent publication US6432453B1, “Dietary supplement containing glycerol ester of conjugated linoleic acid and rosemary extract containing carnosic acid” (Metagenics, Inc., priority 2000, dated 2002).
Read-outs that look alike come from different tables or passages of the source.

Tests used:
[1] = CLA-supplemented subjects, three months, no change of diet
[2] = free fatty acid form

## conjugated linoleic acid [CLA]
[1]
  body fat lost: up to 20%
[2]; 25° C.
  half-life (oxidation): 336 h
[2]; 75° C.
  half-life (oxidation): 7 h
